Laboratory results taken from paper PMC7887271, “Fast acting allosteric phosphofructokinase inhibitors block trypanosome glycolysis and cure acute African trypanosomiasis in mice” (Nature Communications, 2021).
Several values for one entry are separate records, joined by “and”; a condition that tells them apart may be missing. Equal entries are not always repeated.

System: T. b. brucei GVR35-Luc2
Experiment: T. b. brucei GVR35-Luc2 time-to-kill assay (luciferin)
Type: cell-based
Conditions: for Luminescence (medium-subtracted), Average: average of replicates; for % Cell viability, individual replicates / % Inhibition, individual replicates / Luminescence (medium-subtracted), individual replicates: replicate wells; for Luminescence, Average / Luminescence, individual replicates: Time to kill assay for GVR35 cells
Method: Enzyme activity was measured using an aldolase/TIM linked assay at 25 °C. […] Experiments were carried out in duplicate. Data are presented as mean values ± standard deviation. […] Source data are provided as a Source Data File. b Kill time of CTCB-405 compared with existing HAT drugs in the clinic. […] Over 99% of trypanosomes were killed in under 30 min compared with much slower killing rates for the other drugs. The points on the graph for CTCB-405 were determined from two independent biological replicate experiments with each time point measured twice (using duplicate technical replicates). The ESD for each point on the graph is between 0.7 and 1.4%. For drugs in clinical use each point on the graph is the average of two technical replicates from one experiment (with a maximum difference of 7.8% for any of the points). Source data are provided as a Source Data File.
As predicted from the biology of the BSF that relies wholly on glycolysis for ATP production, inhibition of the pathway results in a very fast TTK. Two experimental methods were used to measure ATP levels as a real-time indicator of viability. For Tb427 parasites, a Cell Titre Glo kit was used and for the TbGVR35 bioluminescent strain, killing was assessed by adding luciferin which requires ATP to produce a luminescent signal (Supplementary Methods 4.3 and 4.4). […] The BSF of T. brucei cannot produce ATP by oxidative phosphorylation and is solely dependent on flux through the glycolytic pathway. The clear correlation between inhibitor dose and reduction in ATP production, as observed in the TTK assays strongly supports the proposed mode of action of the CTCB compounds is by blocking glycolysis. It is a long-established experimental observation that withdrawal of glucose nutrient leads to rapid loss of motility and cell death. It has recently been shown that the BSF of T. brucei can proliferate on high levels of glycerol; however, we have shown that addition of glycerol to the medium has little effect on parasite killing by the CTCB compounds (Supplementary Table 3).
The killing of T. b. brucei GVR35-Luc2 was assessed by adding D-luciferin to live cells resulting in the production of light in the presence of ATP and luciferase activity. Compounds of interest were serially diluted from 16 µM to 0.5 µM in Modified HMI-9 medium and added into sterile white, flat bottom 96-well plate (Greiner Inc.). 32,000 trypanosomes were added to each well. The plates were incubated at 37 °C and 5% CO2. At the end of each incubation, 200 µg/ml of D-luciferin was added to each well and incubated for 10 min. Luminescence was measured using a BMG plate reader and percentage cell viability versus incubation time was determined.

[1] = 0.5 h, mean, suramin, fexinidazole, SCYX-7158 11 µM, CTCB-405 4 µM
[2] = 1 h, mean, suramin, fexinidazole, SCYX-7158 11 µM, CTCB-405 4 µM
[3] = 6 h, mean, suramin, fexinidazole, SCYX-7158 11 µM, CTCB-405 4 µM
[4] = 8 h, mean, suramin, fexinidazole, SCYX-7158 11 µM, CTCB-405 4 µM
[5] = GVR35 TTK, 24 h incubation, average
[6] = GVR35 TTK, 24 h incubation, from average
[7] = GVR35 TTK, 24 h sheet, summary line marked "4"

CC1(C)OB(O)c2cc(NC(=O)c3ccc(F)cc3C(F)(F)F)ccc21 [SCYX-7158]
% Cell viability, single replicates (0.5 h): 82% and 93% | % Inhibition, single replicates (0.5 h): 18% and 6.51% | % Cell viability (0.5 h, average): 88% | % Inhibition [1]: 12% | % Cell viability, single replicates (1 h): 78% | % Inhibition, single replicates (1 h): 22% | % Cell viability (1 h, average): 80% | % Inhibition [2]: 20% | % Cell viability, single replicates (2 h): 84% and 77% | % Inhibition, single replicates (2 h): 16% and 23% | % Cell viability (2 h, average): 80% | % Cell viability, single replicates (4 h): 53% and 55% | % Inhibition, single replicates (4 h): 47% and 45% | % Cell viability (4 h, average): 54% | % Inhibition (4 h, mean, suramin, fexinidazole, SCYX-7158 11 µM, CTCB-405 4 µM): 46% | % Cell viability, single replicates (6 h): 30% and 31% | % Inhibition, single replicates (6 h): 70% and 69% | % Cell viability (6 h, average): 31% | % Inhibition [3]: 69% | % Cell viability, single replicates (8 h): 16% and 15% | % Inhibition, single replicates (8 h): 84% and 85% | % Cell viability (8 h, average): 16% | % Inhibition [4]: 84% | % Cell viability, Average [5]: -0.0868% | Luminescence (medium-subtracted), Average (GVR35 TTK, 24 h incubation): 8.5 | % Inhibition [6]: 100% | % Cell viability, individual replicates (GVR35 TTK, 24 h incubation): -0.0698% and -0.104% | % Inhibition, individual replicates (GVR35 TTK, 24 h incubation): 100% | Luminescence (medium-subtracted), individual replicates (GVR35 TTK, 24 h incubation): 16.5 and 0.5 | % Cell viability [7]: -0.085% | Luminescence, Average (0.5 hour incubation): 8054 | Luminescence, individual replicates (0.5 hour incubation): 7697 and 8411 | Luminescence, Average (1hour incubation): 9657 | Luminescence, individual replicates (1hour incubation): 9531 and 9783 | Luminescence, Average (2hour incubation): 11337 | Luminescence, individual replicates (2hour incubation): 11424 and 11249 | Luminescence, Average (4hour incubation): 9915 | Luminescence, individual replicates (4hour incubation): 9827 and 10004 | Luminescence, Average (6hour incubation): 10493 | Luminescence, individual replicates (6hour incubation): 10240 and 10745 | Luminescence, Average (8hour incubation): 4975 | Luminescence, individual replicates (8hour incubation): 5108 and 4842 | Luminescence, Average (24hour incubation): 8.5 | Luminescence, individual replicates (24hour incubation): 17 and 0.5

CSc1ccc(OCc2ncc([N+](=O)[O-])n2C)cc1 [Fexinidazole, fexinidazole]
TTK (time-to-kill) value: > 20 h | % Cell viability, single replicates (0.5 h): 54% and 59% | % Inhibition, single replicates (0.5 h): 46% and 41% | % Cell viability (0.5 h, average): 57% | % Inhibition [1]: 43% | % Cell viability, single replicates (1 h): 46% and 57% | % Inhibition, single replicates (1 h): 54% | % Cell viability (1 h, average): 52% | % Inhibition [2]: 48% | % Cell viability, single replicates (2 h): 61% | % Inhibition, single replicates (2 h): 39% | % Cell viability (2 h, average): 57% | % Cell viability, single replicates (4 h): 58% and 63% | % Inhibition, single replicates (4 h): 42% and 37% | % Cell viability (4 h, average): 61% | % Cell viability, single replicates (6 h): 62% and 60% | % Inhibition, single replicates (6 h): 38% and 40% | % Cell viability (6 h, average): 61% | % Cell viability, single replicates (8 h): 55% | % Inhibition, single replicates (8 h): 45% | % Cell viability (8 h, average): 55% | % Inhibition [4]: 45% | % Cell viability, Average [5]: 18% | Luminescence (medium-subtracted), Average (GVR35 TTK, 24 h incubation): 18856.5 | % Inhibition [6]: 83% | % Cell viability, individual replicates (GVR35 TTK, 24 h incubation): 16% and 19% | % Inhibition, individual replicates (GVR35 TTK, 24 h incubation): 84% and 81% | Luminescence (medium-subtracted), individual replicates (GVR35 TTK, 24 h incubation): 18923.5 and 18789.5 | Luminescence, Average (0.5 hour incubation): 5213 | Luminescence, individual replicates (0.5 hour incubation): 5083 and 5343 | Luminescence, Average (1hour incubation): 6274 | Luminescence, individual replicates (1hour incubation): 5678 and 6870 | Luminescence, Average (2hour incubation): 8146 | Luminescence, individual replicates (2hour incubation): 8389 and 7903 | Luminescence, Average (4hour incubation): 11135 | Luminescence, individual replicates (4hour incubation): 10890 and 11380 | Luminescence, Average (6hour incubation): 20713 | Luminescence, individual replicates (6hour incubation): 21007 and 20418 | Luminescence, Average (8hour incubation): 17103 | Luminescence, individual replicates (8hour incubation): 17279 and 16927 | Luminescence, Average (24hour incubation): 18857 | Luminescence, individual replicates (24hour incubation): 18924 and 18790

Cc1ccc(C(=O)Nc2ccc(S(=O)(=O)O)c3cc(S(=O)(=O)O)cc(S(=O)(=O)O)c23)cc1NC(=O)c1cccc(NC(=O)Nc2cccc(C(=O)Nc3cc(C(=O)Nc4ccc(S(=O)(=O)O)c5cc(S(=O)(=O)O)cc(S(=O)(=O)O)c45)ccc3C)c2)c1 [Suramin, suramin]
TTK (time-to-kill) value: > 20 h | % Cell viability, single replicates (0.5 h): 91% and 97% | % Inhibition, single replicates (0.5 h): 9% and 2.59% | % Cell viability (0.5 h, average): 94% | % Inhibition [1]: 6% | % Cell viability, single replicates (1 h): 87% and 92% | % Inhibition, single replicates (1 h): 13% and 7.55% | % Cell viability (1 h, average): 90% | % Inhibition [2]: 10% | % Cell viability, single replicates (2 h): 95% and 89% | % Inhibition, single replicates (2 h): 4.69% and 11% | % Cell viability (2 h, average): 92% | % Inhibition (2 h, mean, suramin, fexinidazole, SCYX-7158 11 µM, CTCB-405 4 µM): 8% | % Cell viability, single replicates (4 h): 86% | % Inhibition, single replicates (4 h): 14% and 8.56% | % Cell viability (4 h, average): 89% | % Cell viability, single replicates (6 h): 80% and 82% | % Inhibition, single replicates (6 h): 20% and 18% | % Cell viability (6 h, average): 81% | % Inhibition [3]: 19% | % Cell viability, single replicates (8 h): 62% and 63% | % Inhibition, single replicates (8 h): 38% and 37% | % Cell viability (8 h, average): 62% | % Inhibition [4]: 38% | % Cell viability, Average [5]: 1.08% | Luminescence (medium-subtracted), Average (GVR35 TTK, 24 h incubation): 1271 | % Inhibition [6]: 99% | % Cell viability, individual replicates (GVR35 TTK, 24 h incubation): 1.06% and 1.11% | % Inhibition, individual replicates (GVR35 TTK, 24 h incubation): 99% | Luminescence (medium-subtracted), individual replicates (GVR35 TTK, 24 h incubation): 1370.5 and 1171.5 | % Cell viability [7]: 1.08% | Luminescence, Average (0.5 hour incubation): 8640 | Luminescence, individual replicates (0.5 hour incubation): 8520 and 8761 | Luminescence, Average (1hour incubation): 10793 | Luminescence, individual replicates (1hour incubation): 10604 and 10981 | Luminescence, Average (2hour incubation): 13042 | Luminescence, individual replicates (2hour incubation): 13027 and 13057 | Luminescence, Average (4hour incubation): 16276 | Luminescence, individual replicates (4hour incubation): 16058 and 16495 | Luminescence, Average (6hour incubation): 27456 | Luminescence, individual replicates (6hour incubation): 27109 and 27803 | Luminescence, Average (8hour incubation): 19408 | Luminescence, individual replicates (8hour incubation): 19222 and 19594 | Luminescence, Average (24hour incubation): 1271 | Luminescence, individual replicates (24hour incubation): 1371 and 1172
